Reference: patent US12137885B2, “Bodily fluid collection device” (SENJU PHARMACEUTICAL CO., LTD., priority 2020, dated 2024)
Counter-ions that a name gives are not always drawn.

Assay: Timolol concentration of the aqueous humor after ophthalmic administration, collected with the bodily fluid-collecting device (LC/MS/MS)
Assay type: in vivo
Conditions: rabbit; single 40 μl ophthalmic dose of 0.5% timolol maleate sustained ophthalmic solution; aqueous humor 4 hours after administration; Method 1 (0.25, 0.5, 1, 2, 4 h) vs Method 2 (4 h only); FIG. 6
Procedure: Using a micropipette, a 0.5% timolol maleate sustained ophthalmic solution (produced by Santen Pharmaceutical Co., Ltd., Timoptol (registered trademark) XE ophthalmic solution 0.5%) was administered as a single dose of 40 μl near the upper portion of the bulbar conjunctiva of rabbit eyeballs retained using a retention can. The administration was performed on both eyes. A rabbit was retained using a retention can. 30 μl of a 10-fold diluted solution (dilution medium: physiological saline) of a 0.4% oxybuprocaine hydrochloride ophthalmic solution (produced by Santen Pharmaceutical Co., Ltd., Benoxil (registered trademark) ophthalmic solution 0.4%) was ophthalmically administered to the retained rabbit, and local anesthesia was applied. After gently stimulating the cornea with the tip of tweezers and confirming the disappearance of the corneal reflex, a lid retractor was attached. In the Example, a device with a 20-μl capillary attached to a 34 G injection needle was used as the bodily fluid-collecting device. After retaining the eyeball by sandwiching the upper bulbar conjunctiva with tweezers, the needle tip of the bodily fluid-collecting device was inserted into the anterior chamber via the cornea by two-step puncture while checking the curved surface of the cornea. […] After deproteinizing each sample, the timolol concentration of the aqueous humor was measured using the LC/MS/MS method.

In the case of CC(C)(C)NC[C@H](O)COc1nsnc1N1CCOCC1 [timolol, timolol maleate], the “timolol concentration of the aqueous humor at the final collection (Method 1, repeated collection from the same eye) compared with one-point collection (Method 2)” value is reported as “equivalent”.
